Several values for one entry are separate records, joined by “and”; a condition that tells them apart may be missing. Equal values may be shown once. Inconclusive results and toxic doses are left out.
Test system: P388 leukemia ip, CD2F1 mice, survival T/C
Test: NCI In Vivo Anticancer Drug Screen. Data for tumor model P388 Leukemia (intraperitoneal) in CD2F1 (CDF1) mice
Conditions: endpoint: median survival time, higher = longer survival
How it was run: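 Mice carrying the transplanted tumor received test compound or vehicle. Survival was recorded in each group, and the value is the treated-group measurement divided by that of the vehicle-treated control group.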

With `O=P1(N(CCCl)CCCl)NCCCO1` (centres undefined) the T/C (dose: 4.0 mg/kg/injection, schedule: Q01DX009 (ip), vehicle: saline) was 116 % of control and 122 % of control, the T/C (dose: 6.25 mg/kg/injection, schedule: Q01DX009 (ip), vehicle: saline) was 150 % of control and 151 % of control and the T/C (dose: 8.0 mg/kg/injection, schedule: Q01DX009 (ip), vehicle: saline) was 150 % of control. The T/C (dose: 10.0 mg/kg/injection, schedule: Q04DX003 (iv), vehicle: saline) was 119 % of control, the T/C (dose: 12.5 mg/kg/injection, schedule: Q01DX009 (ip), vehicle: saline) was 153 % of control and 185 % of control and 192 % of control and the T/C (dose: 15.0 mg/kg/injection, schedule: Q04DX003 (ip), vehicle: saline) was 150 % of control. The T/C (dose: 16.0 mg/kg/injection, schedule: Q01DX009 (ip), vehicle: saline) was 183 % of control and 188 % of control, the T/C (dose: 16.2 mg/kg/injection, schedule: Q04DX003 (ip), vehicle: saline) was 153 % of control and the T/C (dose: 20.0 mg/kg/injection, schedule: Q01DX009 (ip), vehicle: saline) was 187 % of control. For the same molecule, the T/C (dose: 20.0 mg/kg/injection, schedule: Q04DX003 (ip), vehicle: water) was 164 % of control, the T/C (dose: 20.0 mg/kg/injection, schedule: Q04DX003 (iv), vehicle: saline) was 158 % of control and the T/C (dose: 22.2 mg/kg/injection, schedule: Q01DX009 (ip), vehicle: saline) was 213 % of control. The T/C (dose: 25.0 mg/kg/injection, schedule: Q04DX003 (ip), vehicle: water) was 110 % of control, the T/C (dose: 27.0 mg/kg/injection, schedule: Q04DX003 (ip), vehicle: saline) was 178 % of control and the T/C (dose: 28.8 mg/kg/injection, schedule: Q01DX005 (ip), vehicle: saline) was 190 % of control. The T/C (dose: 30.0 mg/kg/injection, schedule: Q01DX010 (ip), vehicle: water) was 272 % of control, the T/C (dose: 30.0 mg/kg/injection, schedule: Q04DX003 (ip), vehicle: saline) was 195 % of control and the T/C (dose: 31.3 mg/kg/injection, schedule: Q01DX001 (iv), vehicle: saline) was 174 % of control. For the same molecule, the T/C (dose: 32.4 mg/kg/injection, schedule: Q04DX002 (ip), vehicle: saline) was 163 % of control and 178 % of control, the T/C (dose: 33.3 mg/kg/injection, schedule: Q01DX009 (ip), vehicle: saline) was 261 % of control and the T/C (dose: 36.0 mg/kg/injection, schedule: Q01DX009 (ip), vehicle: saline) was 258 % of control. The T/C (dose: 38.9 mg/kg/injection, schedule: Q04DX003 (ip), vehicle: saline) was 227 % of control, the T/C (dose: 40.0 mg/kg/injection, schedule: Q04DX003 (ip), vehicle: saline) was 197 % of control and 204 % of control and the T/C (dose: 40.0 mg/kg/injection, schedule: Q04DX003 (ip), vehicle: water) was 225 % of control. For the same molecule, the T/C (dose: 40.0 mg/kg/injection, schedule: Q04DX003 (iv), vehicle: saline) was 203 % of control, the T/C (dose: 45.0 mg/kg/injection, schedule: Q01DX010 (ip), vehicle: water) was 240 % of control and the T/C (dose: 45.0 mg/kg/injection, schedule: Q04DX003 (ip), vehicle: saline) was 324 % of control. For the same molecule, the T/C (dose: 48.0 mg/kg/injection, schedule: Q01DX005 (ip), vehicle: saline) was 240 % of control, the T/C (dose: 48.0 mg/kg/injection, schedule: Q01DX009 (ip), vehicle: saline) was 118 % of control and the T/C (dose: 50.0 mg/kg/injection, schedule: Q01DX001 (ip), vehicle: water) was 157 % of control and 160 % of control. For the same molecule, the T/C (dose: 50.0 mg/kg/injection, schedule: Q01DX009 (ip), vehicle: water) was 103 % of control, the T/C (dose: 50.0 mg/kg/injection, schedule: Q04DX003 (ip), vehicle: water) was 198 % of control and 214 % of control and the T/C (dose: 54.0 mg/kg/injection, schedule: Q04DX002 (ip), vehicle: saline) was 209 % of control and 213 % of control. For the same molecule, the T/C (dose: 60.0 mg/kg/injection, schedule: Q01DX009 (ip), vehicle: saline) was 99 % of control, the T/C (dose: 60.0 mg/kg/injection, schedule: Q04DX003 (ip), vehicle: saline) was 274 % of control and the T/C (dose: 62.5 mg/kg/injection, schedule: Q01DX001 (iv), vehicle: saline) was 220 % of control. For the same molecule, the T/C (dose: 64.0 mg/kg/injection, schedule: Q01DX009 (ip), vehicle: saline) was 187 % of control and 194 % of control, the T/C (dose: 64.8 mg/kg/injection, schedule: Q04DX003 (ip), vehicle: saline) was 317 % of control and the T/C (dose: 70.0 mg/kg/injection, schedule: Q04DX003 (ip), vehicle: saline) was 225 % of control. The T/C (dose: 73.0 mg/kg/injection, schedule: Q04DX003 (ip), vehicle: saline) was 300 % of control, the T/C (dose: 75.0 mg/kg/injection, schedule: Q01DX009 (ip), vehicle: saline) was 157 % of control and the T/C (dose: 75.0 mg/kg/injection, schedule: Q01DX010 (ip), vehicle: water) was 118 % of control. The T/C (dose: 75.0 mg/kg/injection, schedule: Q04DX003 (ip), vehicle: saline) was 358 % of control, the T/C (dose: 80.0 mg/kg/injection, schedule: Q01DX001 (ip), vehicle: saline) was 155 % of control and the T/C (dose: 80.0 mg/kg/injection, schedule: Q04DX003 (ip), vehicle: saline) was 216 % of control and 284 % of control. For the same molecule, the T/C (dose: 80.0 mg/kg/injection, schedule: Q04DX003 (ip), vehicle: water) was 269 % of control, the T/C (dose: 80.0 mg/kg/injection, schedule: Q04DX003 (iv), vehicle: saline) was 194 % of control and the T/C (dose: 90.0 mg/kg/injection, schedule: Q04DX002 (ip), vehicle: saline) was 220 % of control and 228 % of control. For the same molecule, the T/C (dose: 100.0 mg/kg/injection, schedule: Q01DX001 (ip), vehicle: water) was 199 % of control and 221 % of control, the T/C (dose: 100.0 mg/kg/injection, schedule: Q04DX003 (ip), vehicle: water) was 288 % of control and 324 % of control and the T/C (dose: 108.0 mg/kg/injection, schedule: Q04DX003 (ip), vehicle: saline) was 152 % of control. The T/C (dose: 119.0 mg/kg/injection, schedule: Q01DX001 (ip), vehicle: saline) was 245 % of control, the T/C (dose: 125.0 mg/kg/injection, schedule: Q01DX001 (iv), vehicle: saline) was 350 % of control and the T/C (dose: 125.0 mg/kg/injection, schedule: Q04DX003 (ip), vehicle: saline) was 189 % of control and 196 % of control. The T/C (dose: 150.0 mg/kg/injection, schedule: Q04DX002 (ip), vehicle: saline) was 394 % of control and 409 % of control, the T/C (dose: 150.0 mg/kg/injection, schedule: Q## X001 (ip), vehicle: saline) was 111 % of control and 231 % of control and 260 % of control and the T/C (dose: 160.0 mg/kg/injection, schedule: Q01DX001 (ip), vehicle: saline) was 114 % of control and 232 % of control. For the same molecule, the T/C (dose: 165.0 mg/kg/injection, schedule: Q04DX003 (ip), vehicle: saline) was 221 % of control, the T/C (dose: 180.0 mg/kg/injection, schedule: Q04DX003 (ip), vehicle: saline) was 118 % of control and the T/C (dose: 200.0 mg/kg/injection, schedule: Q01DX001 (ip), vehicle: water) was 281 % of control and 291 % of control. The T/C (dose: 250.0 mg/kg/injection, schedule: Q01DX001 (ip), vehicle: saline) was 98 % of control, the T/C (dose: 250.0 mg/kg/injection, schedule: Q01DX001 (iv), vehicle: saline) was 353 % of control and the T/C (dose: 320.0 mg/kg/injection, schedule: Q01DX001 (ip), vehicle: saline) was 215 % of control and 252 % of control. For the same molecule, the T/C (dose: 600.0 mg/kg/injection, schedule: Q01DX001 (ip), vehicle: water) was 100 % of control.

With `O=C1C=CC(=NS(=O)(=O)c2ccccc2)C=C1` the T/C (dose: 12.5 mg/kg/injection, schedule: Q01DX001 (ip), vehicle: other) was 100 % of control, the T/C (dose: 25.0 mg/kg/injection, schedule: Q01DX001 (ip), vehicle: other) was 100 % of control and the T/C (dose: 50.0 mg/kg/injection, schedule: Q01DX001 (ip), vehicle: other) was 100 % of control.

With `COc1ccc(-c2c(C#N)cnc(C)c2C)c(OCc2ccccc2)c1OC` the T/C (dose: 12.5 mg/kg/injection, schedule: Q01DX009 (ip), vehicle: other) was 106 % of control, the T/C (dose: 25.0 mg/kg/injection, schedule: Q01DX009 (ip), vehicle: other) was 101 % of control and the T/C (dose: 50.0 mg/kg/injection, schedule: Q01DX009 (ip), vehicle: other) was 105 % of control. For the same molecule, the T/C (dose: 100.0 mg/kg/injection, schedule: Q01DX009 (ip), vehicle: other) was 98 % of control and the T/C (dose: 200.0 mg/kg/injection, schedule: Q01DX009 (ip), vehicle: other) was 92 % of control.

For `CCOC(=O)N1C=CC=C(Br)C1C#N` (centres undefined), the T/C (dose: 50.0 mg/kg/injection, schedule: Q01DX005 (ip), vehicle: saline with Tween-80) was 114 % of control.

With `CC1=CC(=C(c2ccc(N)cc2)c2ccc(N)cc2)C=CC1=N` the T/C (dose: 1.56 mg/kg/injection, schedule: Q01DX005 (ip), vehicle: water) was 117 % of control, the T/C (dose: 3.12 mg/kg/injection, schedule: Q01DX005 (ip), vehicle: saline) was 117 % of control and the T/C (dose: 12.5 mg/kg/injection, schedule: Q01DX005 (ip), vehicle: water) was 116 % of control.

In the case of `O=C1C(Cl)=C(N2CCN(C3=C(Cl)C(=O)c4ccccc4C3=O)CC2)C(=O)c2ccccc21`, the T/C (dose: 1.5 mg/kg/injection, schedule: Q01DX009 (ip), vehicle: saline) is reported as 100 % of control and 104 % of control, the T/C (dose: 3.0 mg/kg/injection, schedule: Q01DX009 (ip), vehicle: saline) is reported as 100 % of control and 107 % of control and the T/C (dose: 6.0 mg/kg/injection, schedule: Q01DX009 (ip), vehicle: saline) is reported as 104 % of control and 97 % of control.
